According to patent US8318736B2, “HIV inhibiting 5,6-substituted pyrimidines” (Janssen R&D Ireland, priority 2006, dated 2012):
Like-named read-outs stand apart in the source and are kept apart here.

Columns and labels:
Experiment in all cases: microbe, parasite or virus in culture
[1] = system: HIV strain L100I + K103N; type: cell-based, HIV-1; conditions: L100I + K103N strain; MT4 LTR-EGFP cells
Source text: (§1) Image analysis allowed very sensitive detection of viral infection.

[2] = target: HIV strain MDR (L100I, K103N, Y181C, E138G, V1791, L2214F, V278V/I and A327A/V in HIV reverse transcriptase); type: cell-based, HIV-1; conditions: MDR strain; MT4 LTR-EGFP cells
Source text: as §1
“MDR” refers to a strain that contains mutations L100I, K103N, Y181C, E138G, V1791, L2214F, V278V/I and A327A/V in HIV reverse transcriptase.

[3] = system: HIV strain IIIB (wild type); conditions: for pSI (IIIB) (-log SI; SI = ratio of CC50 to EC50): strain IIIB, CC50 in mock-infected MT4 CMV-EGFP cells
Protocol: Compounds of the invention were tested for their potency against wild type virus and clinically isolated HIV strains harboring one or more mutations associated with resistance to reverse transcriptase inhibitors. Antiviral activity was evaluated using a cellular assay performed according to the following procedure.
The human T-cell line MT4 was engineered with Green Fluorescent Protein (GFP) and a HIV-specific promoter, HIV-1 long terminal repeat (LTR). This cell line, designated MT4 LTR-EGFP, can be used for the in vitro evaluation of anti-HIV activity of investigational compounds. In HIV-1 infected cells, the Tat protein is produced, which upregulates the LTR promotor and eventually leads to stimulation of the GFP reporter production, allowing to measure ongoing HIV-infection fluorometrically.
Analogously, MT4 cells were engineered with GFP and the constitutional cytomegalovirus (CMV) promotor. This cell line was designated MT4 CMV-EGFP, and can be used for the in vitro evaluation of cytotoxicity of investigational compounds. […] Cytotoxic investigational compounds reduce GFP levels of mock-infected MT4 CMV-EGFP cells.
The ratio of CC50 to EC50 is defined as the selectivity index (SI) and is an indication of the selectivity of the anti-HIV activity of the inhibitor. The ultimate monitoring of HIV-1 infection and cytotoxicity was done using a scanning microscope. […] Measurements were done before cell necrosis, which usually takes place about five days after infection, in particular measurements were performed three days after infection.
The columns IIIB, L100I, etc. in the table list the pEC50 (−log EC50) values against various strains IIIB, L100I, etc.; pSI lists the −log SI values.
Strain IIIB is wild type HIV strain.

[4] = wild type HIV strain IIIB, MT4 LTR-EGFP cells, three days after infection

## COCc1nc(Nc2ccc(C#N)cc2)nc(Nc2c(C)cc(C=CC#N)cc2C)c1C(=O)N1CCC(O)CC1 (mixture of isomers) [Compound 27]
[1]
  L100I + K103N pEC50 (-log EC50): 5.79
[2]
  MDR pEC50 (-log EC50): 5.21
[3]
  pSI (IIIB) (-log SI; SI = ratio of CC50 to EC50): >3.61
[3]; [4]
  IIIB pEC50 (-log EC50): 8.21

## COCc1nc(Nc2ccc(C#N)cc2)nc(Nc2c(C)cc(/C=C/C#N)cc2C)c1C(=O)NC1CC1 [Compound 23]
[1]
  L100I + K103N pEC50 (-log EC50): 7.81
[2]
  MDR pEC50 (-log EC50): 6.85
[3]
  pSI (IIIB) (-log SI; SI = ratio of CC50 to EC50): 3.87
[3]; [4]
  IIIB pEC50 (-log EC50): 8.62

## COCc1nc(Nc2ccc(C#N)cc2)nc(Nc2c(C)cc(C=CC#N)cc2C)c1C(=O)NCCNC(C)=O (mixture of isomers) [Compound 12]
[1]
  L100I + K103N pEC50 (-log EC50): 7.42
[2]
  MDR pEC50 (-log EC50): 6.68
[3]
  pSI (IIIB) (-log SI; SI = ratio of CC50 to EC50): 3.59
[3]; [4]
  IIIB pEC50 (-log EC50): 8.25

## COCc1nc(Nc2ccc(C#N)cc2)nc(Oc2c(C)cc(C=C(C)C#N)cc2C)c1C(=O)NCc1ccncc1 (mixture of isomers) [Compound 34]
[1]
  L100I + K103N pEC50 (-log EC50): 6.49
[2]
  MDR pEC50 (-log EC50): 5.81
[3]
  pSI (IIIB) (-log SI; SI = ratio of CC50 to EC50): 3.22
[3]; [4]
  IIIB pEC50 (-log EC50): 8.38

## COCc1nc(Nc2ccc(C#N)cc2)nc(Nc2c(C)cc(C=CC#N)cc2C)c1C(=O)NCc1cccs1 (mixture of isomers) [Compound 18]
[1]
  L100I + K103N pEC50 (-log EC50): 6.97
[2]
  MDR pEC50 (-log EC50): 6.42
[3]
  pSI (IIIB) (-log SI; SI = ratio of CC50 to EC50): >3.63
[3]; [4]
  IIIB pEC50 (-log EC50): 8.23

## C=CCNC(=O)c1c(COC)nc(Nc2ccc(C#N)cc2)nc1Nc1c(C)cc(/C=C/C#N)cc1C [Compound 24]
[1]
  L100I + K103N pEC50 (-log EC50): 7.99
[2]
  MDR pEC50 (-log EC50): 6.72
[3]
  IIIB pEC50 (-log EC50): 8.66

## COCc1nc(Nc2ccc(C#N)cc2)nc(Nc2c(C)cc(/C=C/C#N)cc2C)c1C(=O)NCCc1cccs1 [Compound 30]
[1]
  L100I + K103N pEC50 (-log EC50): 6.67
[2]
  MDR pEC50 (-log EC50): 5.79
[3]
  pSI (IIIB) (-log SI; SI = ratio of CC50 to EC50): >3.24
[3]; [4]
  IIIB pEC50 (-log EC50): 7.84

## COCc1nc(Nc2ccc(C#N)cc2)nc(Nc2c(C)cc(C=CC#N)cc2C)c1C(=O)NCC1CCCO1 (mixture of isomers) [Compound 9]
[1]
  L100I + K103N pEC50 (-log EC50): 7.26
[2]
  MDR pEC50 (-log EC50): 6.45
[3]
  pSI (IIIB) (-log SI; SI = ratio of CC50 to EC50): 3.55
[3]; [4]
  IIIB pEC50 (-log EC50): 8.28

## COCc1nc(Nc2ccc(C#N)cc2)nc(Oc2c(C)cc(C=CC#N)cc2C)c1C(=O)NCc1ccncc1 (mixture of isomers) [Compound 33]
[1]
  L100I + K103N pEC50 (-log EC50): 7.03
[2]
  MDR pEC50 (-log EC50): 5.91
[3]
  pSI (IIIB) (-log SI; SI = ratio of CC50 to EC50): 3.54
[3]; [4]
  IIIB pEC50 (-log EC50): 8.40

## COCc1nc(Nc2ccc(C#N)cc2)nc(Nc2c(C)cc(C=CC#N)cc2C)c1C(=O)NCCC#N (mixture of isomers) [Compound 16]
[1]
  L100I + K103N pEC50 (-log EC50): 7.55
[2]
  MDR pEC50 (-log EC50): 7.03
[3]
  pSI (IIIB) (-log SI; SI = ratio of CC50 to EC50): 4.22
[3]; [4]
  IIIB pEC50 (-log EC50): 8.90

## COCc1nc(Nc2ccc(C#N)cc2)nc(Nc2c(C)cc(C=CC#N)cc2C)c1C(=O)NCCN1CCOCC1 (mixture of isomers) [Compound 14]
[1]
  L100I + K103N pEC50 (-log EC50): 6.67
[2]
  MDR pEC50 (-log EC50): 6.42
[3]
  pSI (IIIB) (-log SI; SI = ratio of CC50 to EC50): 3.70
[3]; [4]
  IIIB pEC50 (-log EC50): 8.41

## COCCNC(=O)c1c(COC)nc(Nc2ccc(C#N)cc2)nc1Nc1c(C)cc(C=CC#N)cc1C (mixture of isomers) [Compound 10]
[1]
  L100I + K103N pEC50 (-log EC50): 8.10
[2]
  MDR pEC50 (-log EC50): 7.30
[3]
  pSI (IIIB) (-log SI; SI = ratio of CC50 to EC50): 3.44
[3]; [4]
  IIIB pEC50 (-log EC50): 8.46

## COCc1nc(Nc2ccc(C#N)cc2)nc(Nc2c(C)cc(C=CC#N)cc2C)c1C(=O)NCc1ccncc1 (mixture of isomers) [Compound 11]
[1]
  L100I + K103N pEC50 (-log EC50): 7.43
[2]
  MDR pEC50 (-log EC50): 7.24
[3]
  pSI (IIIB) (-log SI; SI = ratio of CC50 to EC50): 3.59
[3]; [4]
  IIIB pEC50 (-log EC50): 8.47

## COCc1nc(Nc2ccc(C#N)cc2)nc(Nc2c(C)cc(C=CC#N)cc2C)c1C(=O)N(C)CCN(C)C (mixture of isomers) [Compound 21]
[1]
  L100I + K103N pEC50 (-log EC50): 6.31
[2]
  MDR pEC50 (-log EC50): 5.44
[3]
  pSI (IIIB) (-log SI; SI = ratio of CC50 to EC50): 2.53
[3]; [4]
  IIIB pEC50 (-log EC50): 7.49

## COCc1nc(Nc2ccc(C#N)cc2)nc(Nc2c(C)cc(/C=C/C#N)cc2C)c1C(=O)NCCc1ccccn1 [Compound 15]
[1]
  L100I + K103N pEC50 (-log EC50): 7.24
[2]
  MDR pEC50 (-log EC50): 6.43
[3]
  pSI (IIIB) (-log SI; SI = ratio of CC50 to EC50): 3.52
[3]; [4]
  IIIB pEC50 (-log EC50): 8.55

## COCCNC(=O)c1c(COC)nc(Nc2ccc(C#N)cc2)nc1Oc1c(C)cc(C=CC#N)cc1C (mixture of isomers) [Compound 35]
[1]
  L100I + K103N pEC50 (-log EC50): 7.09
[2]
  MDR pEC50 (-log EC50): 6.18
[3]
  pSI (IIIB) (-log SI; SI = ratio of CC50 to EC50): 3.76
[3]; [4]
  IIIB pEC50 (-log EC50): 8.54

## COCc1nc(Nc2ccc(C#N)cc2)nc(Nc2c(C)cc(C=CC#N)cc2C)c1C(=O)NCc1cccnc1 (mixture of isomers) [Compound 8]
[1]
  L100I + K103N pEC50 (-log EC50): 7.57
[2]
  MDR pEC50 (-log EC50): 7.07
[3]
  pSI (IIIB) (-log SI; SI = ratio of CC50 to EC50): 3.13
[3]; [4]
  IIIB pEC50 (-log EC50): 8.54

## COCc1nc(Nc2ccc(C#N)cc2)nc(Nc2c(C)cc(C=CC#N)cc2C)c1C(=O)NCCc1ccc(S(N)(=O)=O)cc1 (mixture of isomers) [Compound 29]
[1]
  L100I + K103N pEC50 (-log EC50): 7.01
[2]
  MDR pEC50 (-log EC50): 6.72
[3]
  pSI (IIIB) (-log SI; SI = ratio of CC50 to EC50): >3.23
[3]; [4]
  IIIB pEC50 (-log EC50): 7.83

## COCc1nc(Nc2ccc(C#N)cc2)nc(Nc2c(C)cc(/C=C/C#N)cc2C)c1C(=O)NCCN(C)C [Compound 13]
[1]
  L100I + K103N pEC50 (-log EC50): 6.81
[2]
  MDR pEC50 (-log EC50): 5.69
[3]
  pSI (IIIB) (-log SI; SI = ratio of CC50 to EC50): 3.32
[3]; [4]
  IIIB pEC50 (-log EC50): 8.41

## COCc1nc(Nc2ccc(C#N)cc2)nc(Nc2c(C)cc(/C=C/C#N)cc2C)c1C(=O)NCc1ccccn1 [Compound 20]
[1]
  L100I + K103N pEC50 (-log EC50): 7.28
[2]
  MDR pEC50 (-log EC50): 7.03
[3]
  pSI (IIIB) (-log SI; SI = ratio of CC50 to EC50): 3.81
[3]; [4]
  IIIB pEC50 (-log EC50): 8.83

## COCCNC(=O)c1c(COC)nc(Nc2ccc(C#N)cc2)nc1Nc1c(C)cc(C=C(C)C#N)cc1C (mixture of isomers) [Compound 32]
[1]
  L100I + K103N pEC50 (-log EC50): 7.80
[2]
  MDR pEC50 (-log EC50): 7.05
[3]; [4]
  IIIB pEC50 (-log EC50): 8.48

## COCc1nc(Nc2ccc(C#N)cc2)nc(Nc2c(C)cc(C=CC#N)cc2C)c1C(=O)N1CCCC(C(N)=O)C1 (mixture of isomers) [Compound 22]
[1]
  L100I + K103N pEC50 (-log EC50): 6.22
[2]
  MDR pEC50 (-log EC50): 5.64
[3]
  pSI (IIIB) (-log SI; SI = ratio of CC50 to EC50): >2.66
[3]; [4]
  IIIB pEC50 (-log EC50): 7.27

## COCc1nc(Nc2ccc(C#N)cc2)nc(Nc2c(C)cc(C=CC#N)cc2C)c1C(=O)N(C)OC (mixture of isomers) [Compound 25]
[1]
  L100I + K103N pEC50 (-log EC50): 7.19
[2]
  MDR pEC50 (-log EC50): 6.27
[3]
  pSI (IIIB) (-log SI; SI = ratio of CC50 to EC50): 4.02
[3]; [4]
  IIIB pEC50 (-log EC50): 8.72

## COCc1nc(Nc2ccc(C#N)cc2)nc(Nc2c(C)cc(/C=C/C#N)cc2C)c1C(=O)N1CCN(CCO)CC1 [Compound 17]
[1]
  L100I + K103N pEC50 (-log EC50): 6.59
[2]
  MDR pEC50 (-log EC50): 5.19
[3]
  pSI (IIIB) (-log SI; SI = ratio of CC50 to EC50): >2.83
[3]; [4]
  IIIB pEC50 (-log EC50): 7.43

## COCc1nc(Nc2ccc(C#N)cc2)nc(Nc2c(C)cc(/C=C/C#N)cc2C)c1C(=O)NCC(OC)OC [Compound 19]
[1]
  L100I + K103N pEC50 (-log EC50): 7.38
[2]
  MDR pEC50 (-log EC50): 6.97
[3]
  pSI (IIIB) (-log SI; SI = ratio of CC50 to EC50): 3.83
[3]; [4]
  IIIB pEC50 (-log EC50): 8.59
